Assay results as given in patent US20120115151A1, “METHOD FOR TESTING A SUBJECT THOUGHT TO BE PREDISPOSED TO HAVING METASTATIC CANCER USING DELTA133P53BETA” (CENTRE NATIONAL DE LA RECHERCHE SCIENTIFIQUE (CNRS), priority 2009, published 2012).

Tested on: hct116 cells transfected with GFP-tagged Δ133p53 isoforms
Experiment: Matrigel Transwell invasion assay in the presence of the ROCK inhibitor
Format: cell-based
Settings: Y27632 at 10 μM; cells expressing Δ133p53 isoforms invading through Matrigel
Experimental: Y27632 was purchased from calbiochem and was used at 10 μM in all experiments. The quantification of cell invasion was carried out in Transwell cell culture chambers containing fluorescence-blocking polycarbonate porous membrane inserts (Fluoroblock; #351152; BD Biosciences; pore size 8 μm). 100 μl of 2 mg/mL Matrigel with reduced growth factors (a commercially prepared reconstituted BM from Englebreth-Holm-Swarm tumours, #354230; BD Biosciences) were prepared in a Transwell. Cells were transfected and treated or not with Y27632 as monolayers before trypsinization and plating (10·10^4) in 2% FCS containing media on top of a thick layer (around 500 μm) of Matrigel contained within the upper chamber of a Transwell. Controls were left untreated. The upper and lower chambers were then filled with respectively 2% FCS containing media and media with 10% FCS, thus establishing a soluble gradient of chemo-attractant that permits cell invasion throughout the Matrigel. Cells were allowed to invade at 37° C., 5% CO2 through the gel before fixing for 15 min in 3.7% formaldehyde. Cells that had invaded through the Matrigel were detected on the lower side of the filter by GFP fluorescence and counted for cell number. All the surface of the filter is counted and each assay was performed twice in triplicate for each condition. […]

## C[C@@H](N)[C@H]1CC[C@H](C(=O)Nc2ccncc2)CC1 [Y27632]
  invasiveness of transfected cells: highly reduced
